# Reference: patent US5134156A, “Pharmaceutical composition and method for angiogenesis inhibition” (Zaidan Hojin Biseibutsu Kagaku Kai, priority 1989, dated 1992)
# How the values were obtained:
# [1] = Kokai No. 15840/86 and U.S. Pat. No. 4,663,342; cited from earlier work
# mice = assay: Acute toxicity tests in mice by intravenous injection; format: in vivo; conditions: 400 mg/kg
# [2] = system: angiogenesis in chorio-allantoic membrane (CAM) of the chicken embryo; assay: Inhibition of angiogenesis in chorio-allantoic membrane (CAM) of the chicken embryo in the incubated chicken egg; format: in vivo; conditions: 500 μg to 10 μg per CAM
# aminopeptidase M = conditions: known from the literature; cited from earlier work
# [3] = system: chorio-allantoic membrane; assay: Development/formation of chorio-allantoic membrane in the incubated chicken egg; format: in vivo
# Procedure: (§1) Fertilized chicken eggs were incubated for 4 days, and one hole was then bored by a gimlet at the top of the air chamber of the incubated eggs and another hole was bored at the lower lateral part of the egg. The white of egg (about 2 ml) was removed by suction at the lower hole of the egg. The air within the air chamber was sucked off through the hole bored at the top of the air chamber of the egg so that the eggshell membrane was released from the chorio-allantoic membrane (CAM) of the chicken embryo. The hole at the lower lateral part of the egg was then sealed. A part of the eggshell was then cut off from the top of the air chamber of the egg and a silicone ring having an inner diameter of 3 mm was placed directly on the chorio-allantoic membrane (having a diameter of 1 to 3 mm) in each egg, followed by pouring a solution (10 μl) containing a predetermined amount of actinonin and 1% methylcellulose in physiological saline into the silicone ring. The top of the air chamber of the egg was covered by a cap and the eggs were then further incubated for 2 days in an incubator. After this further incubation for 2 days, intralipid was injected into the CAM and the CAM so treated was photographed for estimation of the development of blood vessels.
# [4] = I.A.M. Symposia on Microbiology, No. 6 and U.S. Pat. No. 3,240,787; cited from earlier work
# [5] = system: angiogenesis in chorio-allantoic membrane (CAM) of the chicken embryo; assay: Inhibition of angiogenesis in chorio-allantoic membrane (CAM) of the chicken embryo in the incubated chicken egg; format: in vivo; conditions: for Degree of Inhibition I: number of CAM / Degree of Inhibition II: number of CAM / Degree of Inhibition III: number of CAM / Degree of Inhibition 0: number of CAM: n = 5 tested CAM, 2 days incubation; for Degree of Inhibition I: number of CAM: I-degree: avascular area 2 mm to 4 mm in diameter; for Degree of Inhibition II: number of CAM: II-degree: avascular area 4 mm to 6 mm in diameter; for Degree of Inhibition III: number of CAM: III-degree: avascular area greater than 6 mm in diameter; for Degree of Inhibition 0: number of CAM: zero-degree: avascular area less than 2 mm in diameter
# Procedure: as §1
# Degree of inhibition to the angiogenesis was evaluated in term of the following four scales of zero degree to III-degree, according to the method of Crum et al (see Crum R., Szabo S., and Folkman J.; A new class of steroid inhibits angiogenesis in the presence of heparin or a heparin fragment in the "Science" 230, pp. 1375-1378 (1985)). Thus, the degree of inhibition to angiogenesis were estimated as follows:
# Zero-degree . . . The avasuclar area where the blood vessels were not developed has a size of less than 2 mm in its diameter.
# I-degree . . . The avascular area has a size of from 2 mm to 4 mm in its diameter.
# II-degree . . . The avascular area has a size of from 4 mm to 6 mm in its diameter.
# III-degree . . . The avascular area has a size of greater than 6 mm in its diameter.
# In Table 1 below, there are shown the estimated degrees of the angiogenesis-inhibiting activity of actinonin at a dose of 10 to 100 μg per CAM.
# chicken embryo = assay: Growth of the chicken embryo, visually observed; format: in vivo; conditions: 500 μg to 10 μg per CAM
# Procedure: as §1
# [6] = Kokai No. 4228/87; cited from earlier work
smiles,measurement,setting,value
CCCCC[C@H](CC(=O)NO)C(=O)N[C@H](C(=O)N1CCC[C@H]1CO)C(C)C [actinonin],Immunopotentiating effect,[1],effective as an immunopotentiating agent
same,Deaths in acute toxicity tests,mice,no deaths
same,Inhibition of angiogenesis in the chorio-allantoic membrane,[2],can inhibit the angiogenesis
same,Activity inhibitory to aminopeptidase M,aminopeptidase M,exhibits an activity inhibitory to aminopeptidase M
same,Inhibition to the development of chorio-allantoic membrane,"[3]; 500 μg to 10 μg per CAM, compared to untreated membranes",chorio-allantoic membranes of smaller dimensions as compared to those of the untreated membranes
same,Inhibition of the formation of chorio-allantoic membrane,[3]; conclusion from the CAM test,without inhibiting the formation of chorio-allantoic membrane
same,Antibacterial activity,[4],antibacterially active
same,Activity inhibitory to the angiogenesis in CAM,[5]; 10 μg/CAM,shows a high activity inhibitory to the angiogenesis in CAM
same,Degree of Inhibition I: number of CAM,[5]; 10 μg/CAM,2
same,Degree of Inhibition II: number of CAM,[5]; 10 μg/CAM,1
same,Degree of Inhibition III: number of CAM,[5]; 10 μg/CAM,1
same,Degree of Inhibition 0: number of CAM,[5]; 10 μg/CAM,1
same,Degree of Inhibition I: number of CAM,[5]; 50 μg/CAM,1
same,Degree of Inhibition II: number of CAM,[5]; 50 μg/CAM,2
same,Degree of Inhibition III: number of CAM,[5]; 50 μg/CAM,1
same,Degree of Inhibition 0: number of CAM,[5]; 50 μg/CAM,1
same,Degree of Inhibition I: number of CAM,[5]; 100 μg/CAM,1
same,Degree of Inhibition II: number of CAM,[5]; 100 μg/CAM,1
same,Degree of Inhibition III: number of CAM,[5]; 100 μg/CAM,1
same,Degree of Inhibition 0: number of CAM,[5]; 100 μg/CAM,2
same,Angiogenesis-inhibiting activity,[5]; doses of 10 to 100 μg per CAM,shows an angiogenesis-inhibiting activity
same,Growth of the chicken embryo as a whole,chicken embryo,it was not found that the growth of the chicken embryo as a whole can be inhibited
same,Analgesic effect,[6],effective as an analgesic agent
